Laboratory results reported in patent US5608095A, “Alkyl-4-silyl-phenols and esters thereof as antiatherosclerotic agents” (Hoechst Marion Roussel, Inc., priority 1996, dated 1997).
Like-named read-outs stand apart in the source and are kept apart here.

What was measured:
[1] = Animal parameters (food, body weight, liver weight, mortality) in rats; type: in vivo, male Sprague-Dawley rats; conditions: 4 days; for mortality at 96 h: in vivo, po, read-out: mortality (deaths per group); for mortality at 96 h / body wt., percent of control / lw/bw (liver weight/body weight), percent of control: rat
From the text: A typical experiment consisted of 4-6 groups of rats (N=5 per group) with 1 group being a control which received no MDL compound and the other groups being treated with 0.3% MDL compound. Some of the compounds were either repeated at 0.3% or evaluated again at the lower dose of 0.1%. Male Sprague-Dawley rats, 50-100 g, (Harlan Laboratories, Indianapolis, Ind.) were housed in groups of 5, fed ad libitum water and Purina Rodent chow (#5002) with or without MDL compound as a dietary admixture for 4 days. Dietary admixtures (0.3%) were made by mixing 1.2 grams of an MDL compound with 400 grams of Purina rodent chow (#5002). The MDL compound was mixed with approximately 50 grams of food using a mortar and pestle. This was added to the remainder of the food and mixed for 3 hours on a rotary mixer. In the morning of day 5, non-fasted rats were anesthetized with carbon dioxide, and blood was collected by cardiac puncture. Rats were sacrificed by cervical dislocation. Body weights and liver weights were recorded in grams. Food consumption was recorded as grams.cndot.day^-1.cndot.rat^-1. Deaths were recorded as mortality. Aliquots of fresh serum were used for clinical chemistries, thiobarbituric acid reactive substances (TBARS) and conjugated diene measurements. Aliquots of serum (~0.5mL) and whole livers were frozen at -20° C. for compound and metabolite concentration determination at a later time.

[2] = system: oxidation of serum lipids; assay: TBARS assay, serum of cholesterol-fed rabbits; type: in vivo, female New Zealand White rabbits; conditions: Oryctolagus cuniculus, po, read-out: TBARS, percent of control; for response vs control in vivo at 0.4 %: 168 h
How it was run: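 Female NZW rabbits ate 0.2% cholesterol chow with 0.4% dietary compound (some 0.26% or 0.6%) for 7 days (14 days at 0.6%); fasted serum was collected. Serum was oxidised with 5 mM CuSO4 solution, 37 °C 5 h, then reacted with thiobarbituric acid at 90 °C for 30 min. MDA nmol came from an A540 standard curve, versus untreated-rabbit serum.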

[3] = HPLC quantitation of compound and metabolite concentration in rabbit serum and liver; type: in vivo, female New Zealand White rabbits; conditions: for concentration at 168 h: po
How it was run: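 Female New Zealand White rabbits fed 0.2% cholesterol chow with 0.4% compound (some at 0.26% or 0.6%) for 7 days (14 days at 0.6%), fasted overnight before sampling. Serum and liver extracts run by reverse-phase C18 HPLC, absorbance 240/254/420 nm, for parent, bisphenol and diphenoquinone; recovery-corrected, detection limit ~0.5 μg/mL.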

[4] = rabbit serum, diet 0.4%, 7 days
[5] = rabbit liver, diet 0.4%, 7 days
[6] = rabbit liver, diet 0.4%, 7 days, read-out: Liver Parent = parent compound concentration
[7] = rabbit serum, diet 0.4%, 7 days, read-out: Serum Parent = parent compound concentration

Row | Structure (SMILES) | food (grams eaten per day per rat), percent of control ([1]; diet 0.3%) [%] | mortality at 96 h ([1]; diet 0.3%) [%] | body wt., percent of control ([1]; diet 0.3%) [%] | lw/bw (liver weight/body weight), percent of control ([1]; diet 0.3%) [%] | response vs control in vivo at 0.4 % [2, 4] [%] | response vs control in vivo at 0.6 % ([2]; 336 h, rabbit serum, diet 0.6%, 14 days) [%] | food (grams eaten per day per rat), percent of control ([1]; diet 0.1%) [%] | mortality at 96 h ([1]; diet 0.1%) [%] | body wt., percent of control ([1]; diet 0.1%) [%] | lw/bw (liver weight/body weight), percent of control ([1]; diet 0.1%) [%] | Liver Parent = parent compound concentration [3, 5] [µg/g] | Liver Parent = parent compound concentration ([3]; rabbit liver, diet 0.6%, 14 days) [µg/g] | Serum Parent = parent compound concentration [3, 4] [µg/mL] | Serum Parent = parent compound concentration ([3]; rabbit serum, diet 0.6%, 14 days) [µg/mL] | concentration at 168 h [3, 6] [ng/g] | concentration at 168 h [3, 7] [ng/mL] | response vs control in vivo at 0.4 % [2] [%]
1 | CC(C)(C)c1cc(OC[Si](C)(C)c2ccccc2)cc(C(C)(C)C)c1OC(=O)CCC(=O)O [MDL 103,076, 2,6-Di-t-butyl-4-[(dimethylphenylsilyl)methyloxy]phenol succinic acid ester] | 93 | 0 | 105 | 110 | – | – | – | – | – | – | – | – | – | – | – | – | –
2 | CC(C)(C)c1cc(SC[Si](C)(C)c2ccccc2)cc(C(C)(C)C)c1OC(=O)CCC(=O)O [MDL 103,141, 2,6-Di-t-butyl-4-[(dimethylphenylsilyl)methylthio]phenol sucinic acid ester] | 87 | 0 | 91 | 96 | – | – | – | – | – | – | – | – | – | – | – | – | –
3 | CC(=O)Oc1c(C(C)(C)C)cc(OC[Si](C)(C)c2ccccc2)cc1C(C)(C)C [MDL 103,377, 2,6-Di-t-butyl-4-[(dimethylphenylsilyl)methyloxy]phenol acetic acid ester] | 82 | 0 | 97 | 105 | – | – | – | – | – | – | – | – | – | – | – | – | –
4 | CC(C)(C)c1cc(OC[Si](C)(C)c2ccccc2)ccc1O [MDL 103,491, 2-t-Butyl-4-[(dimethylphenylsilyl)methyloxy]phenol] | 89 | 0 | 100 | 130 | 32 | 18 | 92 | 0 | 95 | 106 | 0 | 0 | 0 | 0 | – | – | –
5 | CN(C)c1ccc([Si](C)(C)COc2cc(C(C)(C)C)c(O)c(C(C)(C)C)c2)cc1 [MDL 104,556, 2,6-Di-t-butyl-4-[(4-N,N-dimethylaminophenyldimethylsilyl)methyloxy]phenol] | 68 | 0 | 87 | 120 | 70 | – | 102 | 0 | 103 | 106 | – | – | – | – | 7900 | 4900 | –
6 | CC(C)(C)c1cc(OC[Si](C)(c2ccccc2)c2ccccc2)cc(C(C)(C)C)c1O [MDL 104,599, 2,6-Di-t-butyl-4-[(diphenylmethylsilyl)methloxy]phenol] | 103 | 0 | 93 | 107 | 79 | – | – | – | – | – | – | – | – | – | 47200 | 14800 | –
7 | CC(C)(C)c1cc(OC[Si](C)(C)c2ccccc2)c(C(C)(C)C)cc1O [MDL 104,962, 2,5-Di-t-butyl-4-[(dimethylphenylsilyl)methyloxy]phenol] | 74 | 0 | 95 | 103 | 19 | – | – | – | – | – | – | – | – | – | 3600 | 3800 | –
8 | Cc1cc(OC[Si](C)(C)c2ccccc2)c(C)c(C)c1O [MDL 105,314, 2,3,6-Trimethyl-4-[(dimethylphenylsdilyl)methloxy]phenol] | 109 | 0 | 111 | 118 | – | – | – | – | – | – | – | – | – | – | – | – | –
9 | CC(=O)Oc1ccc(OC[Si](C)(C)c2ccccc2)cc1C(C)(C)C [MDL 105,443, 2-t-Butyl-4-[(dimethylphenylsilyl)methyloxy]phenol acetic acid ester] | 84 | 0 | 95 | 118 | 42 | – | 100 | 0 | 101 | 110 | 0 | – | 0 | – | – | – | –
10 | CC(C)(C)c1cc(OC[Si](C)(C)c2ccc(C(F)(F)F)cc2)cc(C(C)(C)C)c1O [MDL 105,975, 2,6-Di-t-butyl-4-[(dimethyl-4-trifluoromethylphenylsilyl)methyloxy]phenol] | 98 | 0 | 100 | 113 | – | – | 106 | 0 | 98 | 105 | – | – | – | – | 54600 | 13800 | 68
11 | COc1ccc([Si](C)(C)COc2ccc(O)c(C(C)(C)C)c2)cc1 [MDL 106,834, 2-t-Butyl-4-[(dimethyl-p-methoxylphenylsilyl)methyloxy]phenol] | 91 | 0 | 95 | 132 | 70 | – | – | – | – | – | – | – | – | – | 9100 | 2900 | –
